In patent US11591355B2 (Peloton Therapeutics, Inc., priority 2017, dated 2023):

Columns and labels:
[1] = target: T1, Human CD73 (Homo sapiens, UniProt P21589); test: CD73 Enzyme Assay; assay type: biochemical; conditions: 0.25 nM hCD73, 25 μM AMP, kinetic read at 360 nm; read-out: CD73 Enzyme Assay IC50
T1 construct: purchased R&D Systems; host or cells: CHO cells
T1 sequence (P21589 27-549): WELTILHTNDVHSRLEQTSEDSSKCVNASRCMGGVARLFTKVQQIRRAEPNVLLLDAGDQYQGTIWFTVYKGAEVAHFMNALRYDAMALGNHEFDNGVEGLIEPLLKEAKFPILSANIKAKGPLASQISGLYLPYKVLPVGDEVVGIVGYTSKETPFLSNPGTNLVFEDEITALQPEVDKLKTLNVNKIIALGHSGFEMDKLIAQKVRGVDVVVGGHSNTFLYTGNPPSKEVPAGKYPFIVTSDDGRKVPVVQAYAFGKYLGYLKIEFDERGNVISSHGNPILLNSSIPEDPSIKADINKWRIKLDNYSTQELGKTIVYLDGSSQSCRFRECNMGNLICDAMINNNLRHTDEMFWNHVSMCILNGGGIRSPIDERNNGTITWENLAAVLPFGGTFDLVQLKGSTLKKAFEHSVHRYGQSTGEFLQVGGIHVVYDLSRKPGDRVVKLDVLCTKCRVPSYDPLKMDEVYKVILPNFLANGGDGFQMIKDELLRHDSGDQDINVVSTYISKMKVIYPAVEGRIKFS

[2] = target: T2, CD73 on U138 human neuroglioma cells (Homo sapiens, UniProt P21589); test: CD73 Cell-Based Assay; conditions: U138 cells, AMP substrate, 2 hours at 37° C., inorganic phosphate by malachite green
T2 construct: U138 cells were obtained from ATCC and cultured in DMEM with 10% FBS; host or cells: U138 human neuroglioma cells
T2 sequence (P21589 27-549): T1 sequence (P21589 27-549)
Summary of the method: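 Whole U138 cells washed free of phosphate were incubated with 200 μM AMP (mixture concentration before equal-volume addition) plus compound in HEPES-buffered saline, pH 7.4, for 2 h at 37 °C, 5% CO2. Adenosine-forming activity read as inorganic phosphate released into supernatant by malachite green.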

Structure (SMILES)	IC50 [1]	IC50 [2]
O=P(O)(O)COC[C@H]1O[C@@H](n2ccc3c(NC4CCCC4)nc(C#CC4(O)CC4)nc32)[C@H](O)[C@@H]1O [Compound 276, ((((2R,3S,4R,5R)-5-(4-(cyclopentylamino)-2-((1-hydroxycyclopropyl)ethynyl)-7H-pyrrolo[2,3-d]pyrimidin-7-yl)-3,4-dihydroxytetrahydrofuran-2-yl)methoxy)methyl)phosphonic acid]	< 10 nM	< 10 nM
O=P(O)(O)COC[C@H]1O[C@@H](n2ncc3c(NC4CC5CC5C4)nc(Cl)nc32)[C@H](O)[C@@H]1O (stereo partly drawn) [Compound 279, [(2R,3S,4R,5R)-5-[4-(3-bicyclo[3.1.0]hexa-nylamino)-6-chloro-pyrazolo[3,4-d]-pyrimidin-1-yl]-3,4-dihydroxy-tetrahydro-furan-2-yl]methoxy-methylphosphonic acid]	< 10 nM	< 10 nM
O=P(O)(O)COC[C@H]1O[C@@H](n2ncc3c(N4CC5CC5C4)nc(Cl)nc32)[C@H](O)[C@@H]1O (stereo partly drawn) [Compound 280, [(2R,3S,4R,5R)-5-[4-(3-azabicyclo[3.1.0]-hexan-3-yl)-6-chloro-pyrazolo[3,4-d]-pyrimidin-1-yl]-3,4-dihydroxy-tetrahydro-furan-2-yl]methoxy-methylphosphonic acid]	< 10 nM	< 10 nM
O=P(O)(O)COC[C@H]1O[C@@H](n2ccc3c(N4CCC[C@@H]4CO)nc(Cl)nc32)[C@H](O)[C@@H]1O [Compound 283, [(2R,3S,4R,5R)-5-[2-chloro-4-[(2R)-2-(hydroxymethyl)-pyrrolidin-1-yl]-pyrrolo[2,3-d]-pyrimidin-7-yl]-3,4-dihydroxy-tetrahydro-furan-2-yl]methoxy-methylphosphonic acid]	10 to 100 nM	100 to 1000 nM
C[C@H]1CCCN1c1nc(Cl)nc2c1ccn2[C@@H]1O[C@H](COCP(=O)(O)O)[C@@H](O)[C@H]1O [Compound 284, [(2R,3S,4R,5R)-5-[2-chloro-4-[(2S)-2-methylpyrrolidin-1-yl]pyrrolo[2,3-d]-pyrimidin-7-yl]-3,4-dihydroxy-tetrahydro-furan-2-yl]methoxy-methylphosphonic acid]	10 to 100 nM	10 to 100 nM
O=P(O)(O)COC[C@H]1O[C@@H](c2c[nH]c3c(N4CC5CCCC5C4)nc(Cl)nc23)[C@H](O)[C@@H]1O (stereo partly drawn) [Compound 285, ((((2R,3S,4R,5S)-5-(2-chloro-4-(hexahydrocyclopenta[c]pyrrol-2 (1H)-yl)-5H-pyrrolo[3,2-d]pyrimidin-7-yl)-3,4-dihydroxytetrahydrofuran-2-yl)methoxy)methyl)phosphonic acid]	< 10 nM	< 10 nM
O=P(O)(O)CS(=O)(=O)C[C@H]1O[C@@H](n2ncc3c(NC4CCCC4)nc(Cl)nc32)[C@H](O)[C@@H]1O [Compound 287, [(2S,3S,4R,5R)-5-[6-chloro-4-(cyclopentyl-amino)pyrazolo[3,4-d]-pyrimidin-1-yl]-3,4-dihydroxy-tetrahydro-furan-2-yl]methyl-sulfonylmethylphos-phonic acid]	< 10 nM	< 10 nM
N#Cc1nc(N2CC3CC3C2)c2cnn([C@@H]3O[C@H](CS(=O)(=O)CP(=O)(O)O)[C@@H](O)[C@H]3O)c2n1 (stereo partly drawn) [Compound 288, [(2S,3S,4R,5R)-5-[4-(3-azabicyclo[3.1.0]-hexan-3-yl)-6-cyano-pyrazolo[3,4-d]-pyrimidin-1-yl]-3,4-dihydroxy-tetrahydro-furan-2-yl]methyl-sulfonylmethylphos-phonic acid]	10 to 100 nM	10 to 100 nM
O=P(O)(O)CS(=O)(=O)C[C@H]1O[C@@H](n2ccc3c(NC4CCCC4)nc(C(F)F)nc32)[C@H](O)[C@@H]1O [Compound 289, [(2S,3S,4R,5R)-5-[4-(cyclopentylamino)-2-(difluoromethyl)-pyrrolo[2,3-d]-pyrimidin-7-yl]-3,4-dihydroxy-tetrahydro-furan-2-yl]methyl-sulfonylmethylphos-phonic acid]	< 10 nM	< 10 nM
C[C@@H](Nc1nc(C#N)nc2c1cnn2[C@@H]1O[C@H](CS(=O)(=O)CP(=O)(O)O)[C@@H](O)[C@H]1O)c1ccc(F)cc1 [Compound 291, [(2S,3S,4R,5R)-5-[6-cyano-4-[[(1R)-1-(4-fluorophenyl)ethyl]-amino]pyrazolo[3,4-d]-pyrimidin-1-yl]-3,4-dihydroxy-tetrahydro-furan-2-yl]methyl-sulfonylmethylphos-phonic acid]	< 10 nM	< 10 nM
N#Cc1nc(NC2CC(F)(F)C2)c2cnn([C@@H]3O[C@H](CS(=O)(=O)CP(=O)(O)O)[C@@H](O)[C@H]3O)c2n1 [Compound 292, [(2S,3S,4R,5R)-5-[6-cyano-4-[(3,3-difluoro-difluorocyclobutyl)-amino]pyrazolo[3,4-d]-pyrimidin-1-yl]-3,4-dihydroxy-tetrahydro-furan-2-yl]methyl-sulfonylmethylphos-phonic acid]	< 10 nM	< 10 nM
N#Cc1nc(N2CCC(F)(F)C2)c2cnn([C@@H]3O[C@H](CS(=O)(=O)CP(=O)(O)O)[C@@H](O)[C@H]3O)c2n1 [Compound 293, [(2S,3S,4R,5R)-5-[6-cyano-4-(3,3-difluoro-pyrrolidin-1-yl)-pyrazolo[3,4-d]-pyrimidin-1-yl]-3,4-dihydroxy-tetrahydro-furan-2-yl]methyl-sulfonylmethylphos-phonic acid]	10 to 100 nM	10 to 100 nM
O=P(O)(O)COC[C@H]1O[C@H](c2c[nH]c3c(N4CC5CCCC5C4)nc(Cl)nc23)[C@H](O)[C@@H]1O (stereo partly drawn) [Compound 294, [(2R,3S,4R,5R)-5-[4-(3,3a,4,5,6,6a-hexa-hydro-1H-cyclopenta-[c]pyrrol-2-yl)-2-chloro-5H-pyrrolo[3,2-d]pyrimidin-7-yl]-3,4-dihydroxy-tetrahydro-furan-2-yl]methoxy-methylphosphonic acid]	10 to 100 nM	< 10 nM
O=P(O)(O)COC[C@H]1O[C@@H](c2csc3c(N4CC5CCCC5C4)nc(Cl)nc23)[C@H](O)[C@@H]1O (stereo partly drawn) [Compound 295, [(2R,3S,4R,5S)-5-[4-(3,3a,4,5,6,6a-hexa-hydro-1H-cyclopenta-[c]pyrrol-2-yl)-2-chloro-thieno[3,2-d]-pyrimidin-7-yl]-3,4-dihydroxy-tetrahydro-furan-2-yl]methoxy-methylphosphonic acid]	< 10 nM	< 10 nM
N#Cc1nc(NC2CCCC2)c2cnn([C@@H]3O[C@H](CS(=O)(=O)CP(=O)(O)O)[C@@H](O)[C@H]3O)c2n1 [Compound 296, (((((2S,3S,4R,5R)-5-(6-cyano-4-(cyclopentylamino)-1H-pyrazolo[3,4-d]pyrimidin-1-yl)-3,4-dihydroxytetrahydrofuran-2-yl)methyl)sulfonyl)methyl)phosphonic acid]	< 10 nM	< 10 nM
O=P(O)(O)COC[C@H]1O[C@@H](c2c(Br)sc3c(N4CC5CCCC5C4)nc(Cl)nc23)[C@H](O)[C@@H]1O (stereo partly drawn) [Compound 297, [(2R,3S,4R,5S)-5-[4-(3,3a,4,5,6,6a-hexa-hydro-1H-cyclopenta-[c]pyrrol-2-yl)-6-bromo-2-chloro-thieno[3,2-d]-pyrimidin-7-yl]-3,4-dihydroxy-tetrahydro-furan-2-yl]methoxy-methylphosphonic acid]	100 to 1000 nM	100 to 1000 nM
O=P(O)(O)COC[C@H]1O[C@@H](c2ccc3c(NC4CCCC4)nc(Cl)nn23)[C@H](O)[C@@H]1O [Compound 298, [(2R,3S,4R,5S)-5-[2-chloro-4-(cyclopentyl-amino)pyrrolo[2,1-f]-[1,2,4]triazin-7-yl]-3,4-dihydroxy-tetrahydro-furan-2-yl]methoxy-methylphosphonic acid]	< 10 nM	< 10 nM
N#Cc1nc(N2CC3CCCC3C2)c2cnn([C@@H]3O[C@H](CS(=O)(=O)CP(=O)(O)O)[C@@H](O)[C@H]3O)c2n1 (stereo partly drawn) [Compound 299, [(2S,3S,4R,5R)-5-[4-(3,3a,4,5,6,6a-hexa-hydro-1H-cyclopenta-[c]pyrrol-2-yl)-6-cyano-pyrazolo[3,4-d]-pyrimidin-1-yl]-3,4-dihydroxy-tetrahydro-furan-2-yl]methyl-sulfonylmethylphos-phonic acid]	< 10 nM	< 10 nM
N#Cc1nc(NC2CC3CC3C2)c2cnn([C@@H]3O[C@H](CS(=O)(=O)CP(=O)(O)O)[C@@H](O)[C@H]3O)c2n1 (stereo partly drawn) [Compound 300, [(2S,3S,4R,5R)-5-[4-(3-bicyclo[3.1.0]-hexanylamino)-6-cyano-pyrazolo[3,4-d]-pyrimidin-1-yl]-3,4-dihydroxy-tetrahydro-furan-2-yl]methyl-sulfonylmethylphos-phonic acid]	10 to 100 nM	< 10 nM
O=P(O)(O)CS(=O)(=O)C[C@H]1O[C@@H](n2ccc3c(NC4CCCC4)nc(C(F)(F)F)nc32)[C@H](O)[C@@H]1O [Compound 303, [(2S,3S,4R,5R)-5-[4-(cyclopentylamino)-2-(trifluoromethyl)-pyrrolo[2,3-d]-pyrimidin-7-yl]-3,4-dihydroxy-tetrahydro-furan-2-yl]methyl-sulfonylmethylphos-phonic acid]	10 to 100 nM	10 to 100 nM
